# In patent US9938245B2 (THE TRUSTEES OF COLUMBIA UNIVERSITY IN THE CITY OF NEW YORK, priority 2014, dated 2018):
# pIC50: −log10 of the molar value. “Also recorded” adds a separate entry of the source.
# Key:
# [1] = system: HT1080; assay: Concentration-dependent growth inhibition (alamar blue), HT1080; assay type: cell-based, human; details: Homo sapiens, HT-1080, 48 h, 2 days
# Procedure: Assay plates were prepared by seeding either BJ-derived cell lines or HT-1080 cells at 1,500 cells per well concentration in 36 μL growth medium. Cells in the assay plates were treated with compounds by transferring 4 μL volume from the compound plate. The final concentration of compound was typically 30 μM to 0.9 nM in this 16-point, 2-fold dilution series. Assay plates were returned to the culture incubator and maintained for 2 days before adding alamar blue. […] Plates were incubated further for 16 hours to allow reduction of alamar blue, which results in the generation of red fluorescence. The fluorescence intensity was determined using a Victor 3 plate reader (Perkin Elmer) with a 535 nm excitation filter and a 590 nm emission filter.
# Percent growth inhibition (% GI) was calculated from the following formula using the alamar blue fluorescence intensity values. % GI=100*(1−(X−N)/(P−N)) X, cells treated with lethal compound; N, no cells—growth media only; P, no lethal compound—cells only.
# The concentration-dependent curves were generated using Prism software. Percent growth inhibition, measured using alamar blue is shown. Error bars indicate one standard deviation of triplicate data.
# The results are shown in FIG. 17 and in Table 7 below.
# [2] = target: T1, system xc− (Homo sapiens, UniProt Q9UPY5); assay: Glutamate release assay (system xc− activity); details: read-out: IC50 glutamate release; CCF-STTG1 human astrocytoma cells, 2 hour incubation
# T1 sequence (Q9UPY5 1-501): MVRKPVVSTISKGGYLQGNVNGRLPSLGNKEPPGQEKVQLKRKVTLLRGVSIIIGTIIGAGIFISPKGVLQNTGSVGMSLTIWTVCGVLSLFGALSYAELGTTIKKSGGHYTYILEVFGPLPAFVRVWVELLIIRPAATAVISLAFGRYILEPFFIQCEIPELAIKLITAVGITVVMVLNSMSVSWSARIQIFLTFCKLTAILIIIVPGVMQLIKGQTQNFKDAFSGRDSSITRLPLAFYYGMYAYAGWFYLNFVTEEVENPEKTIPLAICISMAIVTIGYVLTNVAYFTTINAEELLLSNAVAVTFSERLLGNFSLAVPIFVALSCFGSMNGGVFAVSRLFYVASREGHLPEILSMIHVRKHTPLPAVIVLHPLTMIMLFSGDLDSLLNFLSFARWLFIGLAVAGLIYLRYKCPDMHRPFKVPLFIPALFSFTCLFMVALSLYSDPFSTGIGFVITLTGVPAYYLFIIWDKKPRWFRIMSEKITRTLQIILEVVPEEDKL
# T1 sequence (P08195 1-529 partner): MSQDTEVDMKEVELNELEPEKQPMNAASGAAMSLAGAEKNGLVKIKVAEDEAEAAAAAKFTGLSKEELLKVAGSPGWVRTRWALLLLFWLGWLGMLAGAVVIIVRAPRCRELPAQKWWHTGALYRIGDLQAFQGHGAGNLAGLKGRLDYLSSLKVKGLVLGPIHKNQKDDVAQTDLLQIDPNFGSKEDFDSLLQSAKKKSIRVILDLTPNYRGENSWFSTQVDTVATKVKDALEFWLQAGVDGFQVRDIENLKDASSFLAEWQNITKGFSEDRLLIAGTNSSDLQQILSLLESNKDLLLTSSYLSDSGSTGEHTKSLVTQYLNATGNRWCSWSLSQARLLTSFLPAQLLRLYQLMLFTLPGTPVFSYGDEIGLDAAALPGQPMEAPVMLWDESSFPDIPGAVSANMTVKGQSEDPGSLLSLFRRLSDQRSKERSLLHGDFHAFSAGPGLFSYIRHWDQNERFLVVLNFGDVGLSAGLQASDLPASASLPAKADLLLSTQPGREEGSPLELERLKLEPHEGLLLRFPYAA
# [3] = Compound half-life in liver microsomes; details: for half-life at 0.5 μM: mouse, liver microsomes, pH 7.4; for metabolic stability (in words): mouse liver microsomes
# [4] = system: BJeLR; assay: Concentration-dependent growth inhibition (alamar blue), isogenic BJ cell lines; assay type: cell-based, human; details: for pIC50: Homo sapiens, BJeLR, 48 h, 2 days, alamar blue
# [5] = system: BJeH, BJeHLT, BJeLR, and DRD; assay: RSL testing in 4 BJ-derived cell lines; assay type: cell-based, human
# [6] = system: siGPX4-induced cell death; assay: Suppression of siGPX4-induced cell death by ferroptosis inhibitors; assay type: cell-based; details: 10 μM U0126, 100 μM Vit. E, 100 μM DFOM, 50 μM ZIL
# [7] = system: HT-1080 cells, U-2 OS cells; assay: Cell viability (alamar blue, 24 hours) with modulators of erastin lethality; assay type: cell-based, human; details: HT-1080 or U-2 OS cells
# [8] = Pharmacokinetic profile in mice; design: species or system mice (C57BL/6); details: in vivo
# [9] = system: xenograft tumors generated from BJeLR cells; assay type: in vivo; details: for overt toxicity (body weight): mouse, in vivo
# Excerpt: . To test our hypothesis that IKE represented a candidate of choice for in vivo studies, we treated xenograft tumors generated from BJeLR cells in nude mice and with IKE compared to vehicle or doxorubicin treatments (as a positive growth suppression control). […] To confirm that growth suppression caused by IKE was due to ferroptotic cell death, we looked at levels of expression of PTGS2, a gene expression marker of ferroptosis. […]
# [10] = system: HT-1080 cells; assay: Cell death rescue by ALOX inhibitors and COX inhibitor; assay type: cell-based, human; details: inhibitor concentrations of Table 2
# [11] = system: GFP-ALOX5; assay: GFP-ALOX5 translocation assay; assay type: cell-based, human
compound,measurement,setting,value
"CC(C)Oc1ccc(C=O)cc1-n1c(CN2CCN(C(=O)COc3ccc(Cl)cc3)CC2)nc2ccccc2c1=O [AE, aldehyde erastin]",pIC50,[1],7.41
same,pIC50,[2],7.22
same,half-life at 0.5 μM,[3],< 5 min
same,pIC50,[4],8.10
C=CCN1CCN(CC(=O)c2ccc(OC(C)C)c(-n3c(CN4CCN(C(=O)COc5ccc(Cl)cc5)CC4)nc4ccccc4c3=O)c2)CC1 [APKE],pIC50,[2],8.00
same,metabolic stability (in words),[3],medium to poor metabolic stability
same,half-life at 0.5 μM,[3],4.2 min
same,Selectivity (IC50BJeH/IC50BJeLR),[4],1.5
same,pIC50,[4],6.71
"CCCCS(=N)(=O)CCC(N)C(=O)O (stereo not drawn) [BSO, Buthioninesulfoximine]",RSL phenotype (selective lethality in oncogenic-RAS cells),[5],RSL phenotype was observed; also recorded: consistently showed an RSL phenotype
"N#CC(=C(/N)Sc1ccccc1N)/C(C#N)=C(\N)Sc1ccccc1N [Compound U0126, U0126]",rescue of siGPX4-induced cell death,[6],rescued
CC(C)Oc1ccc(C(=O)CF)cc1-n1c(CN2CCN(C(=O)COc3ccc(Cl)cc3)CC2)nc2ccccc2c1=O [FKE],pIC50,[1],7.21
same,pIC50,[2],7.40
same,metabolic stability (in words),[3],medium to poor metabolic stability
same,half-life at 0.5 μM,[3],4.7 min
"N[C@@H](CCC(=O)N[C@@H](CS)C(=O)NCC(=O)O)C(=O)O [GSH, reduced glutathione]",effect on erastin-induced cell death,[7],rescued cells from erastin lethality
"CC(C)Oc1ccc(C(=O)Cn2ccnc2)cc1-n1c(CN2CCN(C(=O)COc3ccc(Cl)cc3)CC2)nc2ccccc2c1=O [IKE, imidazole ketone erastin]",pIC50,[1],6.50
same,bioavailability,"[8]; mouse, 5 mg/kg IKE, single IV bolus or single oral gavage, C57BL/6 mice",2.49%
same,"tumor growth, IKE compared to doxorubicin treatment",[9]; 8 day study,no significant difference
same,overt toxicity (body weight),[9],No overt toxicity was observed
same,expression of PTGS2 relative to doxorubicin or vehicle-treated mice,"[9]; qPCR, xenograft",three-fold average increase
same,tumor size compared to vehicle-treated,"[9]; seven once-daily doses of IKE 50 mg/kg I.P., 8 day study",about one third of the size of vehicle-treated tumors
same,pIC50,[2],7.52
same,metabolic stability (in words),[3],exceptionally high metabolic stability
same,Selectivity (IC50BJeH/IC50BJeLR),[4],42
same,pIC50,[4],8.52
COc1ccc2c(c1)c(CC(=O)O)c(C)n2C(=O)c1ccc(Cl)cc1 [Indomethacin],suppression of erastin-induced cell death,[10],only minimally effective in suppressing erastin lethality
CC(=O)c1ccc(OC(C)C)c(-n2c(CN3CCN(C(=O)COc4ccc(Cl)cc4)CC3)nc3ccccc3c2=O)c1 [KE],pIC50,[1],7.23
same,pIC50,[2],7.52
same,half-life at 0.5 μM,[3],3.8 min
CC(C)Oc1ccc(C(=O)CN2CCOCC2)cc1-n1c(CN2CCN(C(=O)COc3ccc(Cl)cc3)CC2)nc2ccccc2c1=O [MKE],pIC50,[2],8.00
same,metabolic stability (in words),[3],medium to poor metabolic stability
same,half-life at 0.5 μM,[3],23.4 min
same,Selectivity (IC50BJeH/IC50BJeLR),[4],5
same,pIC50,[4],6.37
CC(C)Oc1ccc(C(=O)CN2CCN(C)CC2)cc1-n1c(CN2CCN(C(=O)COc3ccc(Cl)cc3)CC2)nc2ccccc2c1=O [MPKE],pIC50,[2],6.52
same,Selectivity (IC50BJeH/IC50BJeLR),[4],1.9
same,pIC50,[4],6.32
CC(=O)N[C@@H](CS)C(=O)O [N-acetyl-cysteine],effect on erastin-induced cell death,[7],rescued cells from erastin lethality
"CC(C)Oc1ccc(C(=O)CN2CCNCC2)cc1-n1c(CN2CCN(C(=O)COc3ccc(Cl)cc3)CC2)nc2ccccc2c1=O [PKE, piperazine ketone erastin]",pIC50,[1],6.26
same,bioavailability,"[8]; C57BL/6, mouse, oral, 20 mg/kg",0.75%
same,pIC50,[2],7.00
same,metabolic stability (in words),[3],exceptionally high metabolic stability
same,half-life at 0.5 μM,[3],> 90 min
COc1ccc(CN2CCN(CC(=O)c3ccc(OC(C)C)c(-n4c(CN5CCN(C(=O)COc6ccc(Cl)cc6)CC5)nc5ccccc5c4=O)c3)CC2)cc1 [PMB-PKE],pIC50,[2],8.40
same,metabolic stability (in words),[3],medium to poor metabolic stability
same,half-life at 0.5 μM,[3],3.4 min
same,Selectivity (IC50BJeH/IC50BJeLR),[4],13
same,pIC50,[4],7.89
CC(C)Oc1ccc(C(=O)C(F)(F)F)cc1-n1c(CN2CCN(C(=O)COc3ccc(Cl)cc3)CC2)nc2ccccc2c1=O [TFKE],pIC50,[1],6.75
same,pIC50,[2],7.70
"CC(c1cc2ccccc2s1)N(O)C(N)=O (stereo not drawn) [ZIL, Zileuton]",rescue of siGPX4-induced cell death,[6],rescued
"C[C@H]1O[C@@H](O[C@H]2[C@@H](O)C[C@H](O[C@H]3[C@@H](O)C[C@H](O[C@H]4CC[C@@]5(C)[C@H](CC[C@@H]6[C@@H]5C[C@@H](O)[C@]5(C)[C@@H](C7=CC(=O)OC7)CC[C@]65O)C4)O[C@@H]3C)O[C@@H]2C)C[C@H](O)[C@@H]1O [digoxin, Digoxin]",translocation of GFP-ALOX5 to the nuclear membrane,[11],induced GFP-ALOX5 translocation
"COc1cccc2c1C(=O)c1c(O)c3c(c(O)c1C2=O)C[C@@](O)(C(=O)CO)C[C@@H]3O[C@H]1C[C@H](N)[C@H](O)[C@H](C)O1 [doxorubicin, reference compound]",overt toxicity (body weight),[9],No overt toxicity was observed
same,increase in expression of CDKN1A relative to IKE-treated or vehicle-treated mice,"[9]; qPCR, xenograft",5 fold
C[C@H](CCC(=O)O)C[C@H](C)C[C@H](C)C(=O)/C=C(\O)[C@H](C)C[C@H](C)C/C=C/[C@@H](C)[C@@H](O)[C@@H](C)[C@@H](O)C[C@@H]1CC[C@@](C)([C@H]2CC[C@@](C)([C@@H](C)O)O2)O1 [ionomycin],translocation of GFP-ALOX5 to the nuclear membrane,[11],induced localization of GFP-ALOX5 to the nuclear membrane in all BJ-derived cell lines
"CN[C@@H]1C[C@H]2O[C@@](C)([C@@H]1OC)n1c3ccccc3c3c4c(c5c6ccccc6n2c5c31)C(=O)NC4 [staurosporine, Staurosporine]",translocation of GFP-ALOX5 to the nuclear membrane,[11],did not
Vitamin E [Vit. E],rescue of siGPX4-induced cell death,[6],rescued
lysophosphatidyl choline [lyso-PC],RSL phenotype (selective lethality in oncogenic-RAS cells),[5],did not show differential cytotoxicity
same,effect on erastin-induced cell death,[7],modestly sensitized cells to erastin-induced cell death
